Experimental data taken from ChEMBL document CHEMBL1146541, “New cytotoxic indolic metabolites from a marine Streptomyces” (2003).
Activity calls are given as the source filed them.

Experiments:
LoVo [1] = test: Cytotoxicity against doxorubicin-resistant human LoVo cells; type: functional, cell-based
K562 = test: Cytotoxicity against human K562 cells; type: functional
PANC-1 = test: Cytotoxicity against human PANC1 cells; type: functional, cell-based
HMEC-1 = test: Cytotoxicity against human HMEC1 cells; type: functional, cell-based
LoVo [2] = test: Cytotoxicity against human LoVo cells; type: functional, cell-based
LNCaP = test: Cytotoxicity against human LNCAP cells; type: functional, cell-based

Measured: Activity

CC(C)=CCc1ccc2c(CC#N)c[nH]c2c1
inactive: all assays above
